Square brackets hold non-standard residues; d marks the D form. Ends that are not written are not given here. Peptide text beside a SMILES is read from it. pS = N[C@@H](COP(=O)(O)O)C(=O)O
Tests used:
RSV NNTD = molecular target: T1, RSV NNTD (Human respiratory syncytial virus A, UniProt P03418); test: NMR titration of 15N-labeled NNTD (1H-15N HSQC chemical shift perturbations); format: binding; conditions: 20 mM MES pH 6.5, 250 mM NaCl, 20 °C; single site model; mean of 26 individual values; read-out: mean Kd from residue-specific Kds
T1 construct: The N-terminal domain NNTD (residues 31–252), containing a C-terminal 6x histidine tag; 6xHis (C); made in house; host or cells: E. coli BL21(DE3)
From the text: Here, as P protein is constitutively phosphorylated on Ser232 and Ser237 residues in cells, we first investigated the impact of phosphorylation on the affinity of the NNTD-PCtail complex. We performed an NMR titration experiment by adding increasing amounts of pP11 peptide, where Ser232 and Ser237 residues were replaced by O-phosphoserines (pSer, Figure 1A), to a solution of ^15N-labeled NNTD, and measured 2D ^1H-^15N HSQC spectra (Figure 2A). We worked in the same buffer as with P12. At pH 6.5, the pSer sidechains are expected to be mostly negatively charged. Addition of pP11 induced perturbations in the HSQC spectrum of NNTD, in particular chemical shift perturbations (CSPs). […] We measured combined ^1H and ^15N amide CSPs (Equation (1)) for NNTD signals in a fast chemical exchange regime, i.e., signals that shifted in the spectrum without broadening at intermediate titration points (e.g., Ile129 in Figure 2A). Significant CSPs were located in and around the P-binding pocket, confirming that pP11 binds to the previously determined P-binding epitope on NNTD (Figure 2B,C). […]
Overall, signals of bound NNTD were broader than those of unbound NNTD (Figure 2A). […] From chemical shift differences measured for these residues we determined an exchange rate kex of ~800 s^−1 (from Equation (3)) between free and bound NNTD, which indicates a fast dynamic process. […]

RSV N-RNA complex = molecular target: T2, RSV N-RNA complex (Human respiratory syncytial virus A, UniProt P03418); test: Fluorescence polarization inhibition of N-RNA binding to fluorescent probes; conditions: Ki, probe BCN11EE, [N-RNA] 1 µM; IC50-to-Ki server
T2 construct: Full-length N was produced by co-expression with the C-terminal domain of RSV P protein in E. coli BL21(DE3); made in house; host or cells: E. coli BL21(DE3), co-transformed with pET-N and pGEX-P(161–241)
From the text: We next performed inhibition experiments for the F11-(N-RNA) complex by M76 (Figure 4B). FP values decreased with increasing competitor concentration. At saturation, FP nearly reached the value of free F11, showing that the F11 peptide could be nearly completely displaced. Since the same concentration range was used for NNTD and N-RNA, poor solubility of M76 can be ruled out to explain the saturation observed before complete displacement of F11 in the presence NNTD (Figure 3C). This reinforces the hypothesis of a second binding site on NNTD, outside the canonical P-binding site. […]
To probe the potency of M76 as an inhibitor, we carried out competition experiments with the M76 molecule and several BCNn peptides. M76 was able to displace the fluorescent probes from N-RNA, and inhibition curves were obtained (Figure 8E). Since we used different N concentrations to have similar dynamic ranges of FP for the series of fluorescent peptides, we cannot directly compare M76 IC50s. However, Kis may be compared.
Fluorescence polarization measurements were carried out on a Paradigm Detection Platform (Beckman Coulter, Brea, CA, USA) operating with a microplate reader, a fluorescein detection cartridge (excitation range 485/20 nm, emission range 535/25 nm for both parallel and perpendicular components) and the SpectraMax Pro 6.1 software (Molecular Devices, San Jose, CA, USA). Samples were placed in polystyrene black flat bottom 96-well microplates (Cellstar, Greiner bio-one, Frickenhausen, Germany) with 20 µL final volume in each well. If not stated otherwise, the final concentration of fluorescent ligands was 200 nM. The buffer was either 20 mM MES pH 6.5, salt-free or with 250 mM NaCl, or 20 mM Tris pH 8.0 salt-free or with 100 mM NaCl, supplemented with 0.01% Brij-35. Mixing was done using the corresponding plate reader option. The temperature was set to 20 °C. Data were recorded in top reading mode. Measurements were done in triplicate and after an incubation time of 30 min, if not indicated otherwise. Fluorescence polarization (FP) in mFP units was determined from the parallel (I∥) and perpendicular (I⊥) components of the emitted light according to Equation (4). A grating factor G of 1.2 was determined using 1 nM fluorescein in 1 mM NaOH and assuming a theoretical FP of 27 mFP [48]. Background signal was measured from wells containing only buffer, and the mean value was subtracted from each I∥ and I⊥ component. (4) FP (mP)=1000×(I∥−G∗I⊥)/(I∥+G×I⊥)
To assess inhibition of a complex between a fluorescent probe and N protein by peptides or the M76 molecule, the concentration of N was set to work with an FP range comprised between FPmin and ~80% FPmax. Peptides were added from 1 or 2 mM stock solution in water at neutral pH. M76 was added from 10 or 20 mM stock solutions in ethanol or in DMSO. […] Inhibition data were fitted with Origin 7, and in parallel with the Excel solver module. All data were compatible with an absence of cooperativity. FPmax and FPmin were fitted, and the maximal inhibition %i,max was set to 100%. (11) %i=100×[1−(FP−FPmin)/(FPmax−FPmin)] (12) %i=%i,max×[inhibitor]/[inhibitor]+IC50
Inhibition constants Ki were calculated on the IC50-to-Ki converter for a protein-ligand-inhibitor system (https://bioinfo-abcc.ncifcrf.gov/IC50_Ki_Converter/index.php, accessed on 24 August 2022), assuming a competitive mechanism (Equation (13)). This tool takes into account the free concentrations of protein and ligand. (13) Ki=(IC50−[protein]/2)/([peptide]/Kd+1)

[1] = molecular target: T3, RSV N-RNA complex (full-length N protein in ring-shaped complexes with bacterial RNA) (human respiratory syncytial virus, UniProt P03418 1-391); test: fluorescence polarisation; competition: unlabeled pP11 varied against 200 nM BCN_(11EE) on 1 µM N-RNA; Tris pH 8 buffer; Hill equation; Ki from the IC50-to-Ki server; conditions: both partners purified
T3 construct: human RSV nucleoprotein N, full length; concentrations are of N protomer; also called N-RNA rings; source: in lysate for the co-purification; purified (glutathione-Sepharose, thrombin, Superdex 200) as N-RNA complex; copies: 10-11
T3 sequence (looked up): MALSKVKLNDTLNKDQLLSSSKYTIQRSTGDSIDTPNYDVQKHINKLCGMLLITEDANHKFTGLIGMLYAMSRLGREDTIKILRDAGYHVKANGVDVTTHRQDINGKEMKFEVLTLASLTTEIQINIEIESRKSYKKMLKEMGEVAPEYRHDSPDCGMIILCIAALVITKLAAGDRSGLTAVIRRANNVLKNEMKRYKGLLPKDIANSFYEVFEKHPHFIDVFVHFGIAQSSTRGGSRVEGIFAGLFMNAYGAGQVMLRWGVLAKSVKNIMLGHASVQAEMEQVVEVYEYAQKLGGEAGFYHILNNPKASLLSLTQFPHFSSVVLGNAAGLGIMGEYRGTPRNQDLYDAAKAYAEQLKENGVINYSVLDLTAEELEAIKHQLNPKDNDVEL

Question: Which Kd (RSV NNTD) does the source give for `CC(C)C[C@H](NC(=O)[C@H](COP(=O)(O)O)NC(=O)[C@H](CC(C)C)NC(=O)[C@H](CC(=O)O)NC(=O)[C@H](CC(N)=O)NC(=O)[C@H](CC(=O)O)NC(=O)[C@H](COP(=O)(O)O)NC(=O)[C@@H](N)CC(=O)O)C(=O)N[C@@H](CCC(=O)O)C(=O)N[C@@H](CC(=O)O)C(=O)N[C@@H](Cc1ccccc1)C(=O)O` [pP11] (H-D[pS]DNDL[pS]LEDF-OH) here?
Answer: 17 ± 4.5 µM

Question: What about the Ki (RSV N-RNA complex) of the same molecule?
Answer: 1.4 µM

B1: pP11 peptide (RSV P C-terminal 11-mer with O-phosphoserines at 232 and 237) (peptide)
peptide: D[pS]DNDL[pS]LEDF
notes: C-terminal 11 residues of RSV phosphoprotein P with Ser232 and Ser237 as O-phosphoserines; source: bought: GeneCust (synthetic peptide, >95% purity)
Question: For B1, which IC50 [1] is on record?
Answer: 6.9 ± 1.2 µM

— publication PMC9820559, “Investigation of the Fuzzy Complex between RSV Nucleoprotein and Phosphoprotein to Optimize an Inhibition Assay by Fluorescence Polarization” (International Journal of Molecular Sciences, 2022)
